Test results as given in ChEMBL document CHEMBL1201862, “PubChem BioAssay data set” (2004).
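Values below derive from 48-hour exposures of cells grown in 96-well plates, with endpoints linearly interpolated between the two concentrations bracketing the appropriate inhibition level. GI50 = concentration required for 50% inhibition of growth.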 Activity calls are given as the source filed them. No stated cut-off is given here; in the data, active = GI50 up to about 1.1 µM and inactive = higher.

What was measured:
Assay in all cases: inhibition of tumour cell growth, NCI panel, 48 h
A498 = test system: A498
A549 = test system: A549
COLO 205 = test system: COLO 205
EKVX = test system: EKVX
HCC 2998 = test system: HCC 2998
HL-60 = test system: HL-60
HOP-62 = test system: HOP-62
KM12 = test system: KM12
M14 = test system: M14
MDA-MB-435 = test system: MDA-MB-435
NCI-H23 = test system: NCI-H23
RPMI-8226 = test system: RPMI-8226
RXF 393 = test system: RXF 393
SF-268 = test system: SF-268
SK-MEL-5 = test system: SK-MEL-5
UACC-62 = test system: UACC-62
UO-31 = test system: UO-31
NCI-H460 = test system: NCI-H460
SR = test system: SR
PC-3 = test system: PC-3

SMILES | GI50 (A498) | GI50 (A549) | GI50 (COLO 205) | GI50 (EKVX) | GI50 (HCC 2998) | GI50 (HL-60) | GI50 (HOP-62) | GI50 (KM12) | GI50 (M14) | GI50 (MDA-MB-435) | GI50 (NCI-H23) | GI50 (RPMI-8226) | GI50 (RXF 393) | GI50 (SF-268) | GI50 (SK-MEL-5) | GI50 (UACC-62) | GI50 (UO-31) | GI50 (NCI-H460) | GI50 (SR) | GI50 (PC-3)
Cc1ccccc1-n1c(=O)c2ncn(C3CCCO3)c2n(-c2ccccc2C)c1=S (stereo not drawn) | > 100 µM (inactive) | > 100 µM (inactive) | > 100 µM (inactive) | > 100 µM (inactive) | > 100 µM (inactive) | > 100 µM (inactive) | > 100 µM (inactive) | > 100 µM (inactive) | > 100 µM (inactive) | > 100 µM (inactive) | > 100 µM (inactive) | > 100 µM (inactive) | > 100 µM (inactive) | > 100 µM (inactive) | > 100 µM (inactive) | > 100 µM (inactive) | > 100 µM (inactive) | – | – | –
CCN(CCCl)CCCNc1c2ccccc2nc2ccc(OC)cc12 | 1.19 µM (inactive) | 0.232 µM (active) | 0.0964 µM (active) | 1.02 µM (active) | 0.535 µM (active) | 0.039 µM (active) | 0.605 µM (active) | 0.141 µM (active) | 0.522 µM (active) | – | 0.12 µM (active) | 0.0637 µM (active) | 0.215 µM (active) | 0.122 µM (active) | 0.388 µM (active) | 0.118 µM (active) | 1.29 µM (inactive) | 0.0802 µM (active) | 0.0158 µM (active) | –
CCCCc1c2c(nc3c1CCc1cc(C=O)c(N)nc1-3)/C(=C/c1ccccc1)CCC2 | 19.9 µM (inactive) | 19.6 µM (inactive) | 17 µM (inactive) | 48.4 µM (inactive) | 29.9 µM (inactive) | 63.1 µM (inactive) | > 100 µM (inactive) | > 100 µM (inactive) | > 100 µM (inactive) | – | > 100 µM (inactive) | > 100 µM (inactive) | > 100 µM (inactive) | > 100 µM (inactive) | > 100 µM (inactive) | > 100 µM (inactive) | > 100 µM (inactive) | 40.8 µM (inactive) | 58.5 µM (inactive) | –
O=C(Nc1nc2ncn(CCI)c2c(=O)[nH]1)c1ccccc1 | 16 µM (inactive) | 76 µM (inactive) | > 100 µM (inactive) | > 80.4 µM (inactive) | > 100 µM (inactive) | > 100 µM (inactive) | 30.1 µM (inactive) | > 100 µM (inactive) | > 100 µM (inactive) | – | > 100 µM (inactive) | > 100 µM (inactive) | 26.9 µM (inactive) | 21.5 µM (inactive) | > 100 µM (inactive) | 53.8 µM (inactive) | > 90.4 µM (inactive) | > 100 µM (inactive) | > 100 µM (inactive) | –
CCCCCCCCCC(=O)NC(CCC(=O)N(CCNC(=O)c1nc(-c2ccccc2)oc1-c1ccccc1)Cc1ccccc1)C(=O)O (stereo not drawn) | 21.2 µM (inactive) | 17.4 µM (inactive) | 19.6 µM (inactive) | 16.6 µM (inactive) | – | – | 16.4 µM (inactive) | 19.7 µM (inactive) | 15 µM (inactive) | 18.7 µM (inactive) | 17.9 µM (inactive) | 17.3 µM (inactive) | 17.6 µM (inactive) | 16.5 µM (inactive) | 16.2 µM (inactive) | – | 15.2 µM (inactive) | 38.1 µM (inactive) | – | –
O=C(Nc1ccccc1[N+](=O)[O-])C(=O)C(C(=O)c1ccccc1-c1ccccc1)C1OC(=O)c2ccccc21 (stereo not drawn) | 21.7 µM (inactive) | 24.5 µM (inactive) | 16.1 µM (inactive) | 20.2 µM (inactive) | 14.8 µM (inactive) | 14.7 µM (inactive) | 17.5 µM (inactive) | 16.2 µM (inactive) | 15.5 µM (inactive) | – | 17.9 µM (inactive) | 18.5 µM (inactive) | 12.1 µM (inactive) | 14.3 µM (inactive) | 18 µM (inactive) | 16 µM (inactive) | 15.6 µM (inactive) | 15.9 µM (inactive) | 8.43 µM (inactive) | –
COc1ccc([C@H]2C=C(c3cc(F)c(Cl)cc3Cl)N=c3s/c(=C\c4ccc(-c5ccc(Cl)cc5Cl)o4)c(=O)n32)cc1 | 2.48 µM (inactive) | > 100 µM (inactive) | 80 µM (inactive) | – | 20.1 µM (inactive) | – | 18.8 µM (inactive) | 60.1 µM (inactive) | 55.3 µM (inactive) | 30.5 µM (inactive) | 38.9 µM (inactive) | 32.5 µM (inactive) | 39.6 µM (inactive) | 35.6 µM (inactive) | 36.6 µM (inactive) | 25.5 µM (inactive) | 32.9 µM (inactive) | 48.4 µM (inactive) | – | 99.3 µM (inactive)
C=C1C(NC)CCC23CC24CCC2(C)C(C(C)=O)C(O)CC2(C)C4CCC13 (stereo not drawn) | > 100 µM (inactive) | > 100 µM (inactive) | > 100 µM (inactive) | > 100 µM (inactive) | > 100 µM (inactive) | 62.7 µM (inactive) | – | 56.1 µM (inactive) | > 100 µM (inactive) | > 100 µM (inactive) | > 100 µM (inactive) | 45 µM (inactive) | – | > 100 µM (inactive) | > 100 µM (inactive) | > 100 µM (inactive) | > 100 µM (inactive) | > 100 µM (inactive) | – | 78 µM (inactive)
N#CC(C(=O)C(=O)Nc1c(Cl)cccc1Cl)c1ccccc1 (stereo not drawn) | > 10 µM (inactive) | > 10 µM (inactive) | > 10 µM (inactive) | > 10 µM (inactive) | > 10 µM (inactive) | > 10 µM (inactive) | > 10 µM (inactive) | > 10 µM (inactive) | > 10 µM (inactive) | – | > 10 µM (inactive) | > 10 µM (inactive) | > 10 µM (inactive) | > 10 µM (inactive) | > 10 µM (inactive) | > 10 µM (inactive) | > 10 µM (inactive) | > 10 µM (inactive) | > 10 µM (inactive) | –
CCOC(=O)[C@@H]1ON2O[C@@H](OC3CCCC3(c3ccccc3)c3ccccc3)C[C@H]3OC(=O)[C@@H]1C32 (stereo partly drawn) | > 100 µM (inactive) | < 0.01 µM (active) | 38.1 µM (inactive) | > 100 µM (inactive) | 41.8 µM (inactive) | 23.2 µM (inactive) | 31 µM (inactive) | 15.6 µM (inactive) | 16.6 µM (inactive) | 16.8 µM (inactive) | 18.4 µM (inactive) | 35.6 µM (inactive) | 17.1 µM (inactive) | 28.7 µM (inactive) | 32 µM (inactive) | 19.1 µM (inactive) | 19.1 µM (inactive) | 35.6 µM (inactive) | 23.1 µM (inactive) | –
CCOC(=O)c1cc(-c2ccc(OC)cc2)c([N+](=O)[O-])n1C | – | > 10 µM (inactive) | – | > 10 µM (inactive) | > 10 µM (inactive) | > 10 µM (inactive) | – | > 10 µM (inactive) | > 10 µM (inactive) | > 10 µM (inactive) | > 10 µM (inactive) | – | 2.13 µM (inactive) | > 10 µM (inactive) | – | > 10 µM (inactive) | > 10 µM (inactive) | > 10 µM (inactive) | 9.1 µM (inactive) | –
O=C(Nc1ccccc1)N1N=C(c2ccccc2)C1c1ccccc1 (stereo not drawn) | 18.5 µM (inactive) | 25.3 µM (inactive) | 41.7 µM (inactive) | 40.4 µM (inactive) | 31.3 µM (inactive) | 21.9 µM (inactive) | – | 29.9 µM (inactive) | 20 µM (inactive) | – | 23.3 µM (inactive) | 14 µM (inactive) | 17.3 µM (inactive) | 21.1 µM (inactive) | 22.1 µM (inactive) | 20.2 µM (inactive) | 15.2 µM (inactive) | 42.3 µM (inactive) | – | 18.8 µM (inactive)
C[C@]12CC/C(=N\OCCN3CCCCC3)C=C1CCC1C2CC[C@@]2(C)C1CC[C@]2(C)O (stereo partly drawn) | 3.14 µM (inactive) | 12.2 µM (inactive) | 8.17 µM (inactive) | 16.2 µM (inactive) | 9.27 µM (inactive) | – | 15.2 µM (inactive) | 10.4 µM (inactive) | 14.2 µM (inactive) | 2.3 µM (inactive) | 13.4 µM (inactive) | 12.7 µM (inactive) | 16.2 µM (inactive) | 13.4 µM (inactive) | 16.6 µM (inactive) | 9.86 µM (inactive) | 11.1 µM (inactive) | 5.26 µM (inactive) | – | 10.8 µM (inactive)
C/C=C\C(CC(=O)NCCc1cn(C(=O)OCc2ccccc2)c2ccccc12)CC(=O)OC (stereo not drawn) | > 100 µM (inactive) | 50.5 µM (inactive) | 40.6 µM (inactive) | 45.2 µM (inactive) | > 100 µM (inactive) | – | > 100 µM (inactive) | 62.5 µM (inactive) | 86.7 µM (inactive) | 42.3 µM (inactive) | 89.5 µM (inactive) | 58.7 µM (inactive) | 56.4 µM (inactive) | > 100 µM (inactive) | 34.9 µM (inactive) | 90.4 µM (inactive) | 50.8 µM (inactive) | > 100 µM (inactive) | – | 50.2 µM (inactive)
O=C([O-])C[n+]1ccccc1.c1ccncc1 | > 100 µM (inactive) | > 100 µM (inactive) | > 100 µM (inactive) | > 100 µM (inactive) | – | 97.1 µM (inactive) | > 100 µM (inactive) | > 100 µM (inactive) | > 100 µM (inactive) | > 100 µM (inactive) | > 100 µM (inactive) | > 100 µM (inactive) | > 100 µM (inactive) | > 100 µM (inactive) | > 100 µM (inactive) | > 100 µM (inactive) | > 100 µM (inactive) | > 100 µM (inactive) | – | > 100 µM (inactive)
CC(=O)OCSc1ncnc2c1ncn2CN1CCOCC1 | > 100 µM (inactive) | 44.6 µM (inactive) | 18.8 µM (inactive) | > 100 µM (inactive) | 6.46 µM (inactive) | 6.22 µM (inactive) | 10 µM (inactive) | 51.1 µM (inactive) | 2.25 µM (inactive) | – | 11.9 µM (inactive) | 4.44 µM (inactive) | 14.8 µM (inactive) | 31.3 µM (inactive) | 49.4 µM (inactive) | 4.81 µM (inactive) | 8.38 µM (inactive) | 18.2 µM (inactive) | 6.14 µM (inactive) | –
